According to publication PMC12314576, “The Actin‐Binding Prolyl‐Isomerase Par17 Sustains Its Substrate Selectivity by Interdomain Allostery” (Proteins, 2025):
Starred links: 1 amine or outer side, 2 acyl side, 3 side chain; linkers in the order of their positions; H or OH if unused. Residues, ends and D or L forms follow the SMILES beside them. *: point of attachment. pNA = O=[N+]([O-])c1ccc(N*)cc1; Suc = O=C(CCC(=O)[*:2])[*:1]

Assays:
[1] = target: T1, Par17 (Homo sapiens, UniProt Q9Y237); assay: NMR titration of substrate peptides to 15N-labeled full-length Par17; type: binding; conditions: 300 μM Par17, KPi pH 6.7, 20°C
T1 construct: full‐length Par17 and the N‐terminus of Par17; GST-His6 (PreScission site) (N, cleaved yes); Gly-Pro remnant of the PreScission site (Gly stands at position 1 in place of Met1); made in house; host or cells: E. coli BL21 (DE3) T1r
Procedure: The amide signals were assigned and combined chemical shift changes between the signals of free and substrate‐bound isomers were calculated.
(§1) For NMR measurements, purified and concentrated proteins in salt‐free buffers were mixed with 10% D2O and 1 μL DSS standard. Spectra were measured on an ultra shield 700‐NMR (Bruker, Billerica, US) with a triple resonance cryoprobe (700 MHz). For recording and processing of data, the software Topspin 3.5 was used. Analysis of spectra was carried out using Cara analysis software 2.3.1 (Rochus L.J. Keller) and/or CcpNmr Analysis 2.3.1 (Department of Molecular and Cell Biology, University of Leicester, UK).
Titration of substrate peptides to ^ 15 N‐labeled full‐length Par17 and the N‐terminus of Par17: The following substrate peptides were diluted in salt‐free 50 mM KPi buffer pH 6.7 to a concentration of 15 mM (Suc: Succinyl, pNA: para‐Nitroanilin):
They were added stepwise to 200 μL of the labeled parvulins (300 μM in 50 mM KPi buffer pH 6.7). Spectra were recorded with the pulse program Best‐TROSY at 20°C. Combined chemical shifts were calculated as described. Microscopic dissociation constant K D was fitted with the following equation (assuming a 1:1 binding model): (4) ∆δ=∆δmax·P+x+KD−P+x+KD^2−4·x·P/2·P
where ∆δmax is the amplitude, P is the protein concentration, X is the concentration of the peptide.
Differences in chemical shift changes could be measured up to 0.001 ppm (error in peak picking). Changes were interpreted as significant if Δ > 0.004 ppm and when appearing consecutively in a linear sequence element.
The microscopic K D describes the binding affinity of the ligand to a single side of an amino acid.

[2] = target: T2, Par14 (Par17Δ1-25) (Homo sapiens, UniProt Q9Y237); assay: Protease-coupled isomerase assay (PPIase assay) with Par14; type: biochemical; conditions: α-chymotrypsin 35 μM, PBS pH 6.8, 10°C, substrate 75 μM, PPIase 2 μM, absorbance 390 nm; mean ± SD
T2 construct: Comparison of spectra of full‐length parvulin proteins and PPIase domain; GST-His6 (PreScission site) (N, cleaved yes); made in house; host or cells: E. coli BL21 (DE3) T1r
Procedure: (§2) To determine the catalytic efficiency and substrate specificity of Par14 and Par17, we performed a protease‐coupled assay. In this assay, the trans form of a para‐nitroaniline (pNA) tagged model substrate is cleaved by chymotrypsin, and the resulting change in absorption at 390 nm due to free pNA is measured. When the model substrate is added to the protease‐containing buffer, all trans‐Xaa‐Pro isomers are immediately cleaved by chymotrypsin. Therefore, the extent of the first signal burst observed in the absorption spectrum correlates with the amount of trans isomers of the model substrate formed during the experimental dead time. The remaining cis‐Xaa substrates now start to isomerize by thermal (in the absence of PPIase) or catalytic reaction (in the presence of PPIase). The newly formed trans‐Xaa substrates are immediately cleaved, and isomerization can thus be monitored over time (Figure 2). Eighteen different substrate peptides with varying amino acids at the Xaa position (Suc‐Ala‐Xaa‐Pro‐Phe‐pNa) were measured to determine the isomerase activity and substrate selectivity of Par14 (Par17Δ1–25), Par17, and the catalytic domain (Par17Δ1–60) (Table S1). The catalytic efficiency is obtained from the observed isomerization curves by calculating the difference between the rate constant in the presence of enzyme and the rate constant obtained from thermal isomerization.
(§3) We determined the isomerase activity using the PPIase assay described by. The lyophilized peptides were dissolved in an adequate volume of 0.5 mM‐LiCl/TFE buffer to obtain a 15 mM stock solution. To achieve a stable cis/trans ratio the mixture was incubated overnight at 4°C. The next day a stock solution of 350 μM α‐chymotrypsin in PBS was incubated on ice for at least 20 min. For measurements without PPIase PBS buffer (pH 6.8) was mixed with α‐chymotrypsin to a final concentration of 35 μM in 1 mL. A baseline was recorded for 5 min (Cary 100Bio UV/Vis spectrophotometer, Varian/Agilent, Santa Clara, US, λ: 390 nm, bandwidth: 1.0 nm, average time between measurements: 0.5 s, temperature: 10°C). After 5 min the substrate peptide was added to a final concentration of 75 μM in 1 mL [59]. The solution was mixed by inverting the cuvette three times and the reaction was recorded for 15 min. Measurements in the presence of PPIase were performed in the same way, except that before the baseline measurement, the appropriate isomerase was added in a final concentration of 2 μM in 1 mL in addition to PBS and α‐chymotrypsin.
(§4) For the data analysis, a mean value of the baseline was subtracted (average of the first 200 data points). The measured values were normalized according to the respective maximum of the measurement. To determine the rate constant, the program graph pad was used, and non‐linear curve fitting was applied for each measurement (exponential, one‐phase association). (1) Y=Y0+Plateau−Y0∙1−e^−K∙x
(§5) where x is the time (min), Y is the absorbance, Y 0 is the absorbance when x = 0, Plateau is the Y value at infinite times, K is the rate constant (min^−1).
(§6) The K cat/K M value was calculated according to Equation (2): (2) kcat/KM=kobs−ktherm/PPIase where k cat/K M is the catalytic efficiency (M^−1 s^−1), k obs, rate constant of the observed reaction (s^−1), k therm is the rate constant of the thermic reaction (s^−1), and [PPIase] is the concentration of PPIase used in the assay (M).
(§7) The obtained data are fitted to Equation (2) using a pseudo first‐order assumption. This is the case, if k obs values behave linearly with rising PPIase concentrations.

[3] = target: T1, Par17; assay: Protease-coupled isomerase assay (PPIase assay) with Par17; type: biochemical; conditions: for k = kobserved - kthermic, Par17: α-chymotrypsin 35 μM, PBS pH 6.8, 10°C, substrate 75 μM, PPIase 2 μM, absorbance 390 nm, mean ± SD
Procedure: as §2, §3, §4, §5, §6, §7

[4] = target: T3, PPIase domain (Par17Δ1-60) (Homo sapiens, UniProt Q9Y237); assay: Protease-coupled isomerase assay (PPIase assay) with the catalytic domain; type: biochemical; conditions: α-chymotrypsin 35 μM, PBS pH 6.8, 10°C, substrate 75 μM, PPIase 2 μM, absorbance 390 nm; mean ± SD
T3 construct: GST-His6 (PreScission site) (N, cleaved yes); made in house; host or cells: E. coli BL21 (DE3) T1r
Procedure: as §2, §3, §4, §5, §6, §7

[5] = tested on: Par17Δ61–156; assay: NMR titration of substrate peptides to 15N-labeled N-terminus of Par17; type: binding, human; conditions: 15N-BEST-TROSY-HSQC, 50 mM KPi pH 6.7, 20°C; protein 0.3 mM, substrate 3 mM
Excerpt: To elucidate the physical nature of the chemical shift changes in Par17 upon the addition of selected substrate peptides, we investigated whether the isolated N‐terminus of Par17 (Par17Δ61–156) is also capable of binding various substrates on its own. […] This indicates the existence of an independent binding epitope located within the N‐terminus.
In the next step, we studied if this binding epitope is selectively interacting with peptides carrying Xaa‐Pro motifs. We already knew from former studies that model peptides carrying alanine instead of proline in the Xaa position are capable of binding to the hydrophobic catalytic center without being catalyzed.
as §1, with “UK). […]” for “UK).”
They were added stepwise to 200 μL of the labeled parvulins (300 μM in 50 mM KPi buffer pH 6.7). Spectra were recorded with the pulse program Best‐TROSY at 20°C. Combined chemical shifts were calculated as described. […]

T1 sequence (Q9Y237 1-156 isoform Q9Y237-2): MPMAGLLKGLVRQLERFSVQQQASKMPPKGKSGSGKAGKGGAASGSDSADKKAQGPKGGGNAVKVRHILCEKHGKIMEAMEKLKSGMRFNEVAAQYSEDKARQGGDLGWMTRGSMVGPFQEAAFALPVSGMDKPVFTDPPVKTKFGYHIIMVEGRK
T2 sequence (Q9Y237 whole entry, stated change not applied, the tested form may be a part): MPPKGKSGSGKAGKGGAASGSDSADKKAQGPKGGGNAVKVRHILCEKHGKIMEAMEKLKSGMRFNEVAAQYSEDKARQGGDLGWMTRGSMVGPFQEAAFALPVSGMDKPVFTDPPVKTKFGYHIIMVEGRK
T3 sequence (Q9Y237 36-131, stated change not applied): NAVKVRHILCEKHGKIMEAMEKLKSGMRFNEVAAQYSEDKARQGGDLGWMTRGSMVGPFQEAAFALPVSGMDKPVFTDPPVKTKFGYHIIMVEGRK

Compound: C[C@H](NC(=O)CCC(=O)O)C(=O)N[C@@H](CCCCN)C(=O)N1CCC[C@H]1C(=O)N[C@@H](Cc1ccccc1)C(=O)Nc1ccc([N+](=O)[O-])cc1 [Lys, Suc‐Ala‐Lys‐Pro‐Phe‐pNa]
- Combined chemical shift perturbation of full length Par17, 115M ([1]; peptide 0,2 mM): 0,00414271 ppm
- Combined chemical shift perturbation of full length Par17, 119F ([1]; peptide 0,2 mM): 0,00604921 ppm
- Combined chemical shift perturbation of full length Par17, 115M ([1]; peptide 1 mM): 0,01818939 ppm
- Combined chemical shift perturbation of full length Par17, 116V ([1]; peptide 1 mM): 0,06817833 ppm
- Combined chemical shift perturbation of full length Par17, 119F ([1]; peptide 1 mM): 0,02459781 ppm
- Combined chemical shift perturbation of full length Par17, 115M ([1]; peptide 2 mM): 0,03362789 ppm
- Combined chemical shift perturbation of full length Par17, 116V ([1]; peptide 2 mM): 0,13037308 ppm
- Combined chemical shift perturbation of full length Par17, 119F ([1]; peptide 2 mM): 0,04192915 ppm
- Combined chemical shift perturbation of full length Par17, 115M ([1]; peptide 3 mM): 0,04495973 ppm
- Combined chemical shift perturbation of full length Par17, 116V ([1]; peptide 3 mM): 0,18551846 ppm
- Combined chemical shift perturbation of full length Par17, 119F ([1]; peptide 3 mM): 0,05880948 ppm
- Combined chemical shift perturbation of full length Par17, 115M ([1]; peptide 4 mM): 0,05828389 ppm
- Combined chemical shift perturbation of full length Par17, 116V ([1]; peptide 4 mM): 0,23776807 ppm
- Combined chemical shift perturbation of full length Par17, 119F ([1]; peptide 4 mM): 0,07526515 ppm
- Combined chemical shift perturbation of full length Par17, 115M ([1]; peptide 5 mM): 0,06478417 ppm
- Combined chemical shift perturbation of full length Par17, 119F ([1]; peptide 5 mM): 0,08126177 ppm
- k = kobserved - kthermic, Par14 (Par17Δ1-25) [2]: 0.412 ± 0.014 min⁻¹
- k cat/K M of Par17, times higher than for Leu‐Pro, Gln‐Pro or His‐Pro peptides ([3]; ratio of k cat/K M values): approximately 10 times
- k = kobserved - kthermic, Par17 [3]: 0.33 ± 0.012 min⁻¹
- k = kobserved - kthermic, PPIase domain (Par17Δ1-60) [4]: 0.442 ± 0.006 min⁻¹

Compound: CC(C)[C@H](NC(=O)[C@H](C)NC(=O)CCC(=O)O)C(=O)N1CCC[C@H]1C(=O)N[C@@H](Cc1ccccc1)C(=O)Nc1ccc([N+](=O)[O-])cc1 [Val, Suc‐Ala‐Val‐Pro‐Phe‐pNa] (Suc-AVPF-pNA)
- Combined chemical shift perturbation of full length Par17, 113G ([1]; peptide 0,35 mM): 0,024 ppm
- Combined chemical shift perturbation of full length Par17, 115M ([1]; peptide 0,35 mM): 0,015 ppm
- Combined chemical shift perturbation of full length Par17, 116V ([1]; peptide 0,35 mM): 0,049 ppm
- Combined chemical shift perturbation of full length Par17, 119F ([1]; peptide 0,35 mM): 0,022 ppm
- Combined chemical shift perturbation of full length Par17, 113G ([1]; peptide 3 mM): 0,157 ppm
- Combined chemical shift perturbation of full length Par17, 115M ([1]; peptide 3 mM): 0,084 ppm
- Combined chemical shift perturbation of full length Par17, 116V ([1]; peptide 3 mM): 0,326 ppm
- Combined chemical shift perturbation of full length Par17, 119F ([1]; peptide 3 mM): 0,125 ppm
- Combined chemical shift perturbation of full length Par17, 113G ([1]; peptide 5 mM): 0,221 ppm
- Combined chemical shift perturbation of full length Par17, 115M ([1]; peptide 5 mM): 0,11 ppm
- Combined chemical shift perturbation of full length Par17, 116V ([1]; peptide 5 mM): 0,454 ppm
- Combined chemical shift perturbation of full length Par17, 119F ([1]; peptide 5 mM): 0,167 ppm
- Combined chemical shift perturbation of full length Par17, 113G ([1]; peptide 1,5 mM): 0,099 ppm
- Combined chemical shift perturbation of full length Par17, 115M ([1]; peptide 1,5 mM): 0,055 ppm
- Combined chemical shift perturbation of full length Par17, 116V ([1]; peptide 1,5 mM): 0,201 ppm
- Combined chemical shift perturbation of full length Par17, 119F ([1]; peptide 1,5 mM): 0,08 ppm
- k = kobserved - kthermic, Par14 (Par17Δ1-25) [2]: 0.408 ± 0.432 min⁻¹
- k = kobserved - kthermic, Par17 [3]: 0.011 ± 0.005 min⁻¹
- k = kobserved - kthermic, PPIase domain (Par17Δ1-60) [4]: 0.289 ± 0.166 min⁻¹

Compound: Suc–Ala–Glu–Ala–Phe–pNA [proline-free model peptide carrying alanine instead of proline]
- binding to the N-terminal epitope of Par17 [5]: interact with the N‐terminal epitope
